Experimental data reported in the supplement of paper PMC10307832.

Columns and labels:
Experiment in all cases: relative viability (nuclei count vs DMSO), 5 days (fraction); higher = more cells survive
BI-D1870 + Linsitinib = compound: CC(C)CCN1c2nc(Nc3cc(F)c(O)c(F)c3)ncc2N(C)C(=O)C1C [BI-D1870] + C[C@]1(O)C[C@@H](c2nc(-c3ccc4ccc(-c5ccccc5)nc4c3)c3c(N)nccn32)C1 [Linsitinib] (partner 1 µM)
Summary of the method: (§1)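 Lung cancer cell lines in 1536-well plates were dosed by pin tool the day after seeding, either with one drug alone or with a fixed anchor-drug dose plus five library-drug doses (not always all listed) in √10 steps. After 5 days, cells were fixed and their nuclei stained in one step (final 0.05% Triton X-100, 1% formaldehyde, 1 ug/ml Hoechst), then counted on 4× images. Relative viability is the nuclei count in treated wells divided by that in vehicle wells. Values are medians of duplicate plates.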

BI-D1870 + Pemetrexed = compound: CC(C)CCN1c2nc(Nc3cc(F)c(O)c(F)c3)ncc2N(C)C(=O)C1C [BI-D1870] + Nc1nc2[nH]cc(CCc3ccc(C(=O)N[C@@H](CCC(=O)O)C(=O)O)cc3)c2c(=O)[nH]1 [Pemetrexed] (partner 0.2 µM)
Summary of the method: as §1

BI-D1870 + Dasatinib = compound: CC(C)CCN1c2nc(Nc3cc(F)c(O)c(F)c3)ncc2N(C)C(=O)C1C [BI-D1870] + Cc1nc(Nc2ncc(C(=O)Nc3c(C)cccc3Cl)s2)cc(N2CCN(CCO)CC2)n1 [Dasatinib] (partner 0.075 µM)
Summary of the method: as §1

Zebularine + Lapatinib = compound: O=c1ncccn1[C@@H]1O[C@H](CO)[C@@H](O)[C@H]1O [Zebularine] + CS(=O)(=O)CCNCc1ccc(-c2ccc3ncnc(Nc4ccc(OCc5cccc(F)c5)c(Cl)c4)c3c2)o1 [Lapatinib] (partner 2 µM)
Summary of the method: as §1

| Cell Line | relative viability (BI-D1870 + Linsitinib; first compound 0.04 µM) | relative viability (BI-D1870 + Linsitinib; first compound 0.1265 µM) | relative viability (BI-D1870 + Linsitinib; first compound 0.4 µM) | relative viability (BI-D1870 + Linsitinib; first compound 1.265 µM) | relative viability (BI-D1870 + Linsitinib; first compound 4 µM) | relative viability (BI-D1870 + Pemetrexed; first compound 0.04 µM) | relative viability (BI-D1870 + Pemetrexed; first compound 0.1265 µM) | relative viability (BI-D1870 + Pemetrexed; first compound 0.4 µM) | relative viability (BI-D1870 + Pemetrexed; first compound 1.265 µM) | relative viability (BI-D1870 + Pemetrexed; first compound 4 µM) | relative viability (BI-D1870 + Dasatinib; first compound 0.04 µM) | relative viability (BI-D1870 + Dasatinib; first compound 0.1265 µM) | relative viability (BI-D1870 + Dasatinib; first compound 0.4 µM) | relative viability (BI-D1870 + Dasatinib; first compound 1.265 µM) | relative viability (BI-D1870 + Dasatinib; first compound 4 µM) | relative viability (Zebularine + Lapatinib; first compound 1 µM) | relative viability (Zebularine + Lapatinib; first compound 3.162 µM) | relative viability (Zebularine + Lapatinib; first compound 10 µM) | relative viability (Zebularine + Lapatinib; first compound 31.62 µM) | relative viability (Zebularine + Lapatinib; first compound 100 µM) |
| --- | --- | --- | --- | --- | --- | --- | --- | --- | --- | --- | --- | --- | --- | --- | --- | --- | --- | --- | --- | --- |
| NCI-H1975 | 1.01 | 0.849 | 0.874 | 0.94 | 0.636 | 0.299 | 0.272 | 0.292 | 0.305 | 0.238 | 0.497 | 0.314 | 0.359 | 0.399 | 0.295 | 0.982 | 0.872 | 0.478 | 0.392 | 0.267 |
| NCI-H1944 | 1.34 | 1.18 | 1.07 | 1.38 | 1.08 | 0.899 | 0.603 | 0.599 | 0.631 | 0.552 | 0.216 | 0.214 | 0.215 | 0.253 | 0.238 | 0.975 | 0.864 | 0.613 | 0.932 | 0.757 |
| LU99A | 0.617 | 0.435 | 0.519 | 0.48 | 0.496 | 0.178 | 0.2 | 0.171 | 0.183 | 0.135 | 0.753 | 0.51 | 0.512 | 0.467 | 0.425 | 1.14 | 0.838 | 0.615 | 0.421 | 0.176 |
| SW 1573 | 0.768 | 0.756 | 0.89 | 0.771 | 0.63 | 0.855 | 0.775 | 0.826 | 0.845 | 0.35 | 0.625 | 0.456 | 0.594 | 0.472 | 0.213 | 1.24 | 0.773 | 0.502 | 1.23 | 0.873 |
| NCI-H2347 | 1.07 | 0.965 | 0.962 | 1.03 | 0.899 | 0.515 | 0.443 | 0.427 | 0.438 | 0.393 | 0.345 | 0.319 | 0.332 | 0.306 | 0.297 | 1.07 | 0.783 | 0.816 | 0.628 | 0.45 |
| NCI-H2009 | 1.29 | 1.13 | 1.23 | 1.13 | 0.881 | 1.06 | 1.11 | 1.1 | 0.993 | 0.877 | 0.325 | 0.212 | 0.304 | 0.248 | 0.141 | 0.941 | 0.755 | 0.753 | 0.757 | 0.359 |
| HCC-15 | 0.89 | 0.751 | 0.772 | 0.92 | 0.713 | 0.222 | 0.23 | 0.229 | 0.215 | 0.187 | 0.656 | 0.533 | 0.582 | 0.517 | 0.287 | 0.941 | 0.822 | 0.74 | 0.825 | 0.401 |
| COR-L23 | 0.896 | 0.927 | 0.92 | 0.996 | 0.536 | 0.181 | 0.209 | 0.195 | 0.205 | 0.201 | 0.58 | 0.414 | 0.504 | 0.565 | 0.434 | 1.1 | 0.924 | 0.5 | 0.383 | 0.232 |
| HCC-78 | 0.54 | 0.547 | 0.492 | 0.533 | 0.406 | 1.06 | 0.889 | 0.947 | 0.916 | 0.919 | 0.362 | 0.382 | 0.422 | 0.442 | 0.33 | 1.1 | 0.43 | 0.871 | 0.729 | 0.181 |
| NCI-H2087 | 1.09 | 1.02 | 1.17 | 1.01 | 0.699 | 0.697 | 0.671 | 0.75 | 0.71 | 0.703 | 0.93 | 0.798 | 0.921 | 0.891 | 0.743 | 1.16 | 0.662 | 0.615 | 0.924 | 0.275 |
| BEN | 0.956 | 0.859 | 0.914 | 1.01 | 0.961 | 0.784 | 0.628 | 0.743 | 0.96 | 0.697 | 0.291 | 0.293 | 0.349 | 0.38 | 0.304 | 0.661 | 0.491 | 0.347 | 0.311 | 0.22 |
| EKVX | 1.14 | 0.933 | 1 | 1.05 | 0.893 | 0.399 | 0.418 | 0.359 | 0.67 | 0.391 | 0.719 | 0.456 | 0.522 | 0.554 | 0.454 | 0.218 | 0.182 | – | 0.211 | 0.184 |
| LXF-289 | 1.05 | 0.91 | 0.943 | 0.947 | 0.916 | 0.959 | 0.857 | 0.876 | 0.877 | 0.764 | 0.254 | 0.239 | 0.216 | 0.223 | 0.244 | 0.986 | 0.92 | 0.818 | 0.783 | 0.271 |
| NCI-H650 | 1.12 | 0.733 | 0.905 | 0.704 | 0.855 | 0.848 | 0.837 | 0.96 | 0.896 | 0.802 | 0.454 | 0.419 | 0.431 | 0.403 | 0.35 | 1.32 | 0.805 | 0.496 | 0.565 | 0.276 |
| NCI-H2085 | 0.93 | 0.81 | 0.896 | 0.885 | 0.68 | 0.924 | 0.802 | 0.887 | 0.881 | 0.603 | 0.246 | 0.246 | 0.222 | 0.239 | 0.281 | 0.833 | 0.747 | 0.647 | 0.773 | 0.633 |
| NCI-H1793 | 0.824 | 0.578 | 0.794 | 0.84 | 0.932 | 1.14 | 0.737 | 0.869 | 1.03 | 0.686 | 0.423 | 0.334 | 0.396 | 0.39 | 0.309 | 0.826 | 0.882 | 0.339 | 0.648 | 0.304 |
